Measurements taken from patent publication US6348471B1, “Pyrimidyl oxyphenylacetic acid derivatives” (Bayer Aktiengesellschaft, priority 1997, dated 2002).

How the values were obtained:
Pyrenophora teres = Pyrenophora teres test (barley)/curative; format: in vivo; conditions: curative, application rate 250 g/ha, evaluation 7 days after inoculation
Procedure: Pyrenophora teres test (barley)/curative Solvent: 10 parts by weight of N-methyl-pyrrolidone Emulsifier: 0.6 parts by weight of alkylaryl polyglycol ether To produce a suitable preparation of active compound, 1 part by weight of active compound is mixed with the stated amounts of solvent and emulsifier, and the concentrate is diluted with water to the desired concentration. To test for curative activity, young plants are sprayed with a conidia suspension of Pyrenophora teres. The plants remain in an incubation cabin at 20° C. and 100% relative atmospheric humidity for 48 hours. The plants are subsequently sprayed with the preparation of active compound at the stated application rate. The plants are placed in a greenhouse at a temperature of approximately 20° C. and a relative atmospheric humidity of approximately 80%.

Leptosphaeria nodorum = Leptosphaeria nodorum test (wheat)/curative; format: in vivo; conditions: curative, application rate 125 g/ha, evaluation 10 days after inoculation
Procedure: Leptosphaeria nodorum test (wheat)/curative Solvent: 10 parts by weight of N-methyl-pyrrolidone Emulsifier: 0.6 parts by weight of alkylaryl polyglycol ether To produce a suitable preparation of active compound, 1 part by weight of active compound is mixed with the stated amounts of solvent and emulsifier, and the concentrate is diluted with water to the desired concentration. To test for curative activity, young plants are sprayed with a conidia suspension of Leptosphaeria nodorum. […] The plants are placed in a greenhouse at a temperature of approximately 15° C. and a relative atmospheric humidity of approximately 80%.

[1] = logP by HPLC (EEC directive 79/831 Annex V. A8, gradient method); format: physicochemical
Procedure: The logP values were determined in accordance with EEC directive 79/831 Annex V. A8 by HPLC (gradient method, acetonitrile/0.1% aqueous phosphoric acid)

For `CNC(=O)C(=NOC)c1ccccc1Oc1nccc(OC(C)C)n1` [Example 1, 2-[2-(4-isopropoxypyrimidin-2-yloxy)-phenyl]-2-methoxyimino-N-methylacetamide], the efficacy (Pyrenophora teres) was 70%, the efficacy (Leptosphaeria nodorum) was “more than 60%” and the chromatographic logP [1] was 2.2.
